Experimental data as given in patent US8884023B2, “Pyrano [3,2-D][1,3]thiazole as glycosidase inhibitors” (priority 2011, dated 2014).
Like-named read-outs stand apart in the source and are kept apart here.

Tests used:
[1] = target: T1, His-Tagged hOGA (human O-GlcNAcase) (Homo sapiens, UniProt O60502); assay: biochemical
T1 sequence (O60502 1-916): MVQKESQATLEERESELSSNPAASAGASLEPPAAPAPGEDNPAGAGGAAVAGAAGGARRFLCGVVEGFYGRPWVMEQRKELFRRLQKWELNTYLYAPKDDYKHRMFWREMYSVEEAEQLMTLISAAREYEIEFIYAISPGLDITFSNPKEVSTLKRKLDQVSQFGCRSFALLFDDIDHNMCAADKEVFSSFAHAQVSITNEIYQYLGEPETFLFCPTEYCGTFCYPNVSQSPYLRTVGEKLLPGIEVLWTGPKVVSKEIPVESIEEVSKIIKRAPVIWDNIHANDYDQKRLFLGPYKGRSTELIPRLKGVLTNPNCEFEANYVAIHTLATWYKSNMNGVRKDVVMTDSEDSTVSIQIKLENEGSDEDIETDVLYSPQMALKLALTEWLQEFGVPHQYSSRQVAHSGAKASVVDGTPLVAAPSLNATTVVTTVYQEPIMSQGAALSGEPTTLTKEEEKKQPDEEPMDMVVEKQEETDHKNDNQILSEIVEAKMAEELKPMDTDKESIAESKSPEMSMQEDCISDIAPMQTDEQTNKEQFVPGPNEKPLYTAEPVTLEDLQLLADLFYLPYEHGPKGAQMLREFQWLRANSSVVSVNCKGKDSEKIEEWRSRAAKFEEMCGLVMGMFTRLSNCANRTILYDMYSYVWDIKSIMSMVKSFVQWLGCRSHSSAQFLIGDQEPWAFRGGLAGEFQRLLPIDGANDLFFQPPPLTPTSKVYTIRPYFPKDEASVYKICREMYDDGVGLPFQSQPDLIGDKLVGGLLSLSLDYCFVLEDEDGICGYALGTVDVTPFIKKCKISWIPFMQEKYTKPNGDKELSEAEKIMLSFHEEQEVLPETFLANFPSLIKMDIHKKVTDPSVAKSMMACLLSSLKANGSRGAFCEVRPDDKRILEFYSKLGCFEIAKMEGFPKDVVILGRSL

[2] = target: T2, O-GlcNAcase (UniProt Q8VIJ5); type: cell-based
T2 sequence (Q8VIJ5 1-916): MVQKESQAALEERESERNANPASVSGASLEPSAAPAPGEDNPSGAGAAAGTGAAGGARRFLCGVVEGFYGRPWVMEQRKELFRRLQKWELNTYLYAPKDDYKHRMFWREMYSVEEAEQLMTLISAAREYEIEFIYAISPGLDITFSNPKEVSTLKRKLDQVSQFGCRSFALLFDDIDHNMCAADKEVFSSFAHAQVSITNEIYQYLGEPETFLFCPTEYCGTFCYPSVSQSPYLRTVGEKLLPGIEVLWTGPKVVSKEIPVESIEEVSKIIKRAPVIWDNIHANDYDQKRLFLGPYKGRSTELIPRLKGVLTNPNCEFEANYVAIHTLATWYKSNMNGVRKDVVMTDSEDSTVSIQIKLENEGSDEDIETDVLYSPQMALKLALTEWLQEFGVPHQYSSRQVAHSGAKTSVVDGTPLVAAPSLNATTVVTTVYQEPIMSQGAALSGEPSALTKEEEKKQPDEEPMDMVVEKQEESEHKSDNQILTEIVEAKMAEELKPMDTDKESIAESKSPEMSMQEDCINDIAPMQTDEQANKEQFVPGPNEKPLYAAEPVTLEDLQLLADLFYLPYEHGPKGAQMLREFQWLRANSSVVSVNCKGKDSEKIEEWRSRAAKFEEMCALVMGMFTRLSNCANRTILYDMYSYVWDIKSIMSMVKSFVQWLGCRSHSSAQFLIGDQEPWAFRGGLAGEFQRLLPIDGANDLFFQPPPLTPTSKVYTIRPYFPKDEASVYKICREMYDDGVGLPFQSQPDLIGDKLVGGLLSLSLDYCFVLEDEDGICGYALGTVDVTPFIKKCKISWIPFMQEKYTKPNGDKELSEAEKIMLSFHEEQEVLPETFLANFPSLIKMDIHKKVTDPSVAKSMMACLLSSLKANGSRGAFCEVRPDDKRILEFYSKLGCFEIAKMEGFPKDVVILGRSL
Excerpt: Assay for the Determination of Cellular Activity for Compounds that Inhibit O-GlcNAcase Activity
Inhibition of O-GlcNAcase, which removes O-GlcNAc from cellular proteins, results in an increase in the level of O-GlcNAcylated proteins in cells. An increase in the O-GlcNAcylation of cellular proteins can be measured by an antibody, such as CTD110.6, that binds O-GlcNAcylated proteins. The amount of O-GlcNAcylated protein can be determined by the enzyme linked immunoabsorbant assay (ELISA) technique.
Cell lines, such as rat B35, rat PC-12 and human SH-SY5Y cells, expressing endogenous levels of O-GlcNAcase, could be utilized. Cells were plated in 96-well plates at a density of approximately 10,000 cells/well. Compounds to be tested were dissolved in DMSO as 10 mM stock solution, and then diluted first with DMSO and then culture media using the Bravo workstation. Cells were treated with diluted compounds for approximately 16 hours. […] To prepare a cell lysate, the media from compound treated cells were removed, and the cells were washed once with Dulbecco's phosphate buffered saline (DPBS) and then lysed for 30 minutes in 100 μl/well of ice cold RIPA buffer containing a protease inhibitor cocktail.
The ELISA portion of the assay was performed in EIA/RIA plates that were coated overnight at 4 C with 80 μl/well of cell lysate. The following day the wells were washed 6 times with 200 μl of wash buffer (0.05% Tween20 in DPBS). The wells were blocked with 200 μl blocking buffer (1% BSA, 0.05% Tween20 in DPBS) for 1 h at room temperature. Each well was then washed 6 times with 200 μl of wash buffer. The anti-O-GlcNAc antibody CTD110.6 (Covance, Princeton, N.J.) was added at 100 μl/well at a concentration of 10 μg/ml. The plates were incubated for 1 h at room temperature. The wells were then washed 6 times with 200 μl/well of wash buffer. To detect the amount of CTD110.6 bound to the cell lysate, alkaline phosphatase conjugated goat anti-mouse IgM (diluted 1:500 in blocking buffer) was added at 100 μl/well and incubated for 45 min at room temperature. Each well was then washed 6 times with 200 μl/well of wash buffer. PNPP tablets dissolved in diethanolamine substrate buffer and 100 μl/well were added as detection reagent.
The amount of O-GlcNAcylated protein, as detected by the ELISA assay, was plotted for each concentration of test compound using standard curve fitting algorithms for sigmoidal dose response curves. The values for a four parameter logistic curve fit of the data were determined, with the inflection point of the curve being the potency value for the test compound.

[3] = cells expressing endogenous O-GlcNAcase (such as rat B35, rat PC-12, human SH-SY5Y), approximately 16 hours treatment; read-out: OGA cellular inhibition (EC50)
[4] = read-out: OGA enzyme inhibition (IC50)

SMILES	IC50 [1] [nM]	EC50 [2, 3] [nM]	IC50 [1, 4] [nM]	EC50 ([2]; read-out: OGA cellular inhibition (EC50); cells expressing endogenous O-GlcNAcase (such as rat B35, rat PC-12, human SH-SY5Y), approximately 16 hours treatment) [nM]
CCNC1=N[C@@H]2[C@@H](O)[C@H](O)[C@@H](Cn3cc(COc4cccc(Cl)c4)nn3)O[C@@H]2S1 [compound 78]	< 100	< 100		
CCNC1=N[C@@H]2[C@@H](O)[C@H](O)[C@@H](Cn3cc(C(O)c4ccccc4)nn3)O[C@@H]2S1 (some centres unmarked) [compound 68]	< 100	> 1000		
CCNC1=N[C@@H]2[C@@H](O)[C@H](O)[C@@H](Cn3cc(COc4cccc(OC)c4)nn3)O[C@@H]2S1 [compound 80]	< 100	100 to 500		
CCNC1=N[C@@H]2[C@@H](O)[C@H](O)[C@@H](C(O)CCc3ccccc3)O[C@@H]2S1 (single isomer, unassigned) [compound no. 53]		100 to 500	100 to 500	
CCNC1=N[C@@H]2[C@@H](O)[C@H](O)[C@@H](Cn3cc(COc4ccccc4C#N)nn3)O[C@@H]2S1 [compound 82]	< 100	> 1000		
CCNC1=N[C@@H]2[C@@H](OS(C)(=O)=O)[C@H](O)[C@@H](CO)O[C@@H]2S1 [compound no. 46, (3aR,5R,6R,7R,7aR)-2-(ethylamino)-6-hydroxy-5-(hydroxymethyl)-5,6,7,7a-tetrahydro-3aH-pyrano[3,2-d][1,3]thiazol-7-yl methanesulfonate]		100 to 500	100 to 500	
CCNC1=N[C@@H]2[C@@H](O)[C@H](O)[C@@H](Cn3cc(C(O)(c4ccccc4)C(F)(F)F)nn3)O[C@@H]2S1 (some centres unmarked) [compound 70]	< 100	> 1000		
CCNC1=N[C@@H]2[C@@H](O)[C@H](O)[C@@H](Cn3cc(COc4ccccc4)nn3)O[C@@H]2S1 [compound no. 58, (3aR,5R,6S,7R,7aR)-2-(ethylamino)-5-{[4-(phenoxymethyl)-1H-1,2,3-triazol-1-yl]methyl}-5,6,7,7a-tetrahydro-3aH-pyrano[3,2-d][1,3]thiazole-6,7-diol]		500 to 1000	< 100	
CCNC1=N[C@@H]2[C@@H](O)[C@H](O)[C@@H](Cn3cc(COc4ccc(C(C)O)cc4)nn3)O[C@@H]2S1 (some centres unmarked) [compound 90]	< 100	> 1000		
CCNC1=N[C@@H]2[C@@H](O)[C@H](O)[C@@H](Cn3cc(COc4ccccc4C)nn3)O[C@@H]2S1 [compound 87]		500 to 1000	< 100	
CCNC1=N[C@@H]2[C@@H](O)[C@H](O)[C@@H](Cn3cc(-c4ccccc4)nn3)O[C@@H]2S1 [compound no. 2, (3aR,5R,6S,7R,7aR)-2-(ethylamino)-5-[(4-phenyl-1H-1,2,3-triazol-1-yl)methyl]-5,6,7,7a-tetrahydro-3aH-pyrano[3,2-d][1,3]thiazole-6,7-diol]		> 1000	100 to 500	
CCNC1=N[C@@H]2[C@@H](O)[C@H](O)[C@@H](Cn3cc(C(C)(O)c4ccccc4)nn3)O[C@@H]2S1 (some centres unmarked) [compound no. 67, 2-Ethylamino-5-[4-(1-hydroxy-1-phenyl-ethyl)-[1,2,3]triazol-1-ylmethyl]-5,6,7,7a-tetrahydro-3aH-pyrano[3,2-d]thiazole-6,7-diol]	< 100	< 100		
CCNC1=N[C@@H]2[C@@H](O)[C@H](O)[C@@H](Cn3cc(COc4cccc(F)c4)nn3)O[C@@H]2S1 [compound 79]		100 to 500	< 100	
CCNC1=N[C@@H]2[C@@H](O)[C@H](O)[C@@H](Cn3cc(CCCc4ccccc4)nn3)O[C@@H]2S1 [compound no. 30, (3aR,5R,6S,7R,7aR)-2-(ethylamino)-5-{[4-(3-phenylpropyl)-1H-1,2,3-triazol-1-yl]methyl}-5,6,7,7a-tetrahydro-3aH-pyrano[3,2-d][1,3]thiazole-6,7-diol]	100 to 500	> 1000		
CCNC1=N[C@@H]2[C@@H](O)[C@H](O)[C@@H](CF)O[C@@H]2S1 [compound no. 4, (3aR,5S,6S,7R,7aR)-2-(ethylamino)-5-(fluoromethyl)-5,6,7,7a-tetrahydro-3aH-pyrano[3,2-d][1,3]thiazole-6,7-diol]	< 100			100 to 500
CCNC1=N[C@@H]2[C@@H](O)[C@H](O)[C@@H](COC(c3ccccc3)(c3ccccc3)c3ccccc3)O[C@@H]2S1 [compound 43]	500 to 1000	> 1000		
